# Reference: ChEMBL document CHEMBL4368855, “Novel tricyclic glycal-based TRIB1 inducers that reprogram LDL metabolism in hepatic cells” (Medchemcomm, 2018)
# pEC50: −log10 of the molar value. Activity calls are given as the source filed them. The rule behind the calls is not given here.
# What was measured:
# [1] = tested on: HepG2; experiment: Induction of TRIB1 expression in human HepG2 cells measured after overnight incubation by qRT-PCR analysis; type: functional, cell-based
# [2] = tested on: HepG2; experiment: Induction of TRIB1 expression in human HepG2 cells assessed as increase in ApoB secretion measured after 24 hrs by ELISA; type: functional, cell-based
# [3] = tested on: HepG2; experiment: Down regulation of PCSK9 expression in human HepG2 cells after 24 hrs by ELISA; type: functional, cell-based
# [4] = tested on: HepG2; experiment: Up regulation of LDLR expression in human HepG2 cells after 24 hrs by ELISA; type: functional, cell-based
# [5] = tested on: HepG2; experiment: Induction of LDL uptake in human HepG2 cells preincubated for 20 hrs followed by BODIPY-FL-LDL addition and measured after 5 hrs by Hoechst 33342 staining based microscopic analysis; type: functional, cell-based
# [6] = tested on: HepG2; experiment: Induction of TRIB1 expression in human HepG2 cells assessed as reduction in 13[C3]-D5-glycerol incorporation into C50:2 triglyceride at 2 uM preincubated for 24 hrs followed by 13[C3]-D5-glycerol addition and measured by LC/MS analysis; type: functional, cell-based
# [7] = tested on: HepG2; experiment: Induction of TRIB1 expression in human HepG2 cells assessed as reduction in 13[C3]-D5-glycerol incorporation into C48:2 triglyceride at 2 uM preincubated for 24 hrs followed by 13[C3]-D5-glycerol addition and measured by LC/MS analysis; type: functional, cell-based
# [8] = tested on: HepG2; experiment: Up regulation of TRIB1 expression in human HepG2 cells at 1 uM measured after 6 to 24 hrs by transcriptional profiling analysis; type: functional, cell-based
# [9] = tested on: HepG2; experiment: Up regulation of LDLR expression in human HepG2 cells at 1 uM measured after 6 to 24 hrs by transcriptional profiling analysis; type: functional, cell-based
# [10] = tested on: HepG2; experiment: Down regulation of DGAT1 gene expression in human HepG2 cells at 1 uM measured after 24 hrs by transcriptional profiling analysis; type: functional, cell-based
# [11] = tested on: HepG2; experiment: Down regulation of MOGAT2 gene expression in human HepG2 cells at 1 uM measured after 24 hrs by transcriptional profiling analysis; type: functional, cell-based
# [12] = tested on: HepG2; experiment: Down regulation of MTTP gene expression in human HepG2 cells at 1 uM measured after 24 hrs by transcriptional profiling analysis; type: functional, cell-based
# [13] = tested on: HepG2; experiment: Down regulation of APOC3 gene expression in human HepG2 cells at 1 uM measured after 24 hrs by transcriptional profiling analysis; type: functional, cell-based
# [14] = tested on: HepG2; experiment: Down regulation of HMGCS1 gene expression in human HepG2 cells at 1 uM measured after 24 hrs by transcriptional profiling analysis; type: functional, cell-based
# [15] = tested on: HepG2; experiment: Down regulation of HMGCR gene expression in human HepG2 cells at 1 uM measured after 24 hrs by transcriptional profiling analysis; type: functional, cell-based
# [16] = tested on: HepG2; experiment: Down regulation of ACAT2 gene expression in human HepG2 cells at 1 uM measured after 24 hrs by transcriptional profiling analysis; type: functional, cell-based
# [17] = tested on: HepG2; experiment: Down regulation of MVK gene expression in human HepG2 cells at 1 uM measured after 24 hrs by transcriptional profiling analysis; type: functional, cell-based
# [18] = tested on: HepG2; experiment: Down regulation of LSS gene expression in human HepG2 cells at 1 uM measured after 24 hrs by transcriptional profiling analysis; type: functional, cell-based
# [19] = tested on: HepG2; experiment: Up regulation of JUNB expression in human HepG2 cells at 1 uM measured after 6 hrs by transcriptional profiling analysis; type: functional, cell-based
# [20] = tested on: HepG2; experiment: Up regulation of EGR1 expression in human HepG2 cells at 1 uM measured after 6 hrs by transcriptional profiling analysis; type: functional, cell-based
# [21] = tested on: HepG2; experiment: Up regulation of FOS expression in human HepG2 cells at 1 uM measured after 6 hrs by transcriptional profiling analysis; type: functional, cell-based
# [22] = tested on: HepG2; experiment: Up regulation of JUN expression in human HepG2 cells at 1 uM measured after 6 hrs by transcriptional profiling analysis; type: functional, cell-based
# [23] = tested on: HepG2; experiment: Up regulation of DUSP1 expression in human HepG2 cells at 1 uM measured after 6 hrs by transcriptional profiling analysis; type: functional, cell-based
# [24] = tested on: HepG2; experiment: Up regulation of ZFP36 expression in human HepG2 cells at 1 uM measured after 6 hrs by transcriptional profiling analysis; type: functional, cell-based
# [25] = tested on: HepG2; experiment: Up regulation of ATF3 expression in human HepG2 cells at 1 uM measured after 6 hrs by transcriptional profiling analysis; type: functional, cell-based
# [26] = tested on: HepG2; experiment: Effect on SREBF1 expression in human HepG2 cells at 1 uM measured after 6 to 24 hrs by transcriptional profiling analysis; type: functional, cell-based
# [27] = tested on: HepG2; experiment: Effect on SREBF2 expression in human HepG2 cells at 1 uM measured after 6 to 24 hrs by transcriptional profiling analysis; type: functional, cell-based
# [28] = tested on: HepG2; experiment: Up regulation of LDLR gene expression in human HepG2 cells measured after 6 hrs by qRT-PCR analysis relative to control; type: functional
# [29] = tested on: HepG2; experiment: Up regulation of TRIB1 gene expression in human HepG2 cells measured after 6 hrs by qRT-PCR analysis relative to control; type: functional
# [30] = tested on: HepG2; experiment: Up regulation of LDLR expression in human HepG2 cells at 10 uM measured after 6 hrs in presence of JAK inhibitor CP-690550 by qRT-PCR analysis; type: functional, cell-based
# [31] = tested on: HepG2; experiment: Up regulation of LDLR expression in human HepG2 cells at 10 uM measured after 6 hrs in presence of MEK inhibitor U0126 by qRT-PCR analysis; type: functional, cell-based
# [32] = biological target: T1, Mitogen-activated protein kinase; ERK1/ERK2 (Homo sapiens) (UniProt P27361+P28482); experiment: Activation of ERK1/2 phosphorylation in human HepG2 cells assessed as ratio of phosphorylated ERK1/2 to total ERK1/2 at 2 uM after 30 mins by Western blot analysis relative to control; type: cell-based
# [33] = biological target: T1, Mitogen-activated protein kinase; ERK1/ERK2 (Homo sapiens); experiment: Activation of ERK1/2 phosphorylation in human HepG2 cells assessed as ratio of phosphorylated ERK1/2 to total ERK1/2 at 2 uM after 6 hrs by Western blot analysis relative to control; type: cell-based
# [34] = tested on: HepG2; experiment: Up regulation of LDLR gene expression in human HepG2 cells cultured in cholesterol depleted media at 2.5 uM after 6 hrs by qRT-PCR analysis; type: functional, cell-based
# [35] = tested on: HepG2; experiment: Down regulation of PCSK9 gene expression in human HepG2 cells cultured in cholesterol depleted media at 2.5 uM after 24 hrs by qRT-PCR analysis; type: functional, cell-based
# [36] = tested on: HepG2; experiment: Up regulation of LDLR gene expression in human HepG2 cells at 2 uM after 6 hrs in presence of simvastatin by qRT-PCR analysis; type: functional, cell-based
# [37] = tested on: HepG2; experiment: Up regulation of PCSK9 gene expression in human HepG2 cells at 2 uM after 24 hrs in presence of atorvastatin by qRT-PCR analysis; type: functional, cell-based
# [38] = tested on: HepG2; experiment: Up regulation of TRIB1 gene expression in human HepG2 cells measured after 6 hrs by qRT-PCR analysis; type: functional, cell-based; conditions: HepG2, 6 h
# [39] = tested on: HepG2; experiment: Up regulation of LDLR gene expression in human HepG2 cells measured after 6 hrs by qRT-PCR analysis; type: functional, cell-based; conditions: HepG2, 6 h
# [40] = tested on: HepG2; experiment: Down regulation of PCSK9 gene expression in human HepG2 cells measured after 24 hrs by qRT-PCR analysis; type: functional, cell-based; conditions: HepG2, 24 h
# [41] = Stability in mouse liver microsomes assessed as parent compound remaining at 1 uM incubated for 60 mins under shaking condition by UPLC/MS analysis; type: ADME, Microsome; conditions: read-out: Stability
# [42] = Tmax in C57BL/6 mouse plasma at 10 mg/kg, ip administered as single dose by mass spectrometry; type: ADME, organism-based
# [43] = Cmax in C57BL/6 mouse plasma at 10 mg/kg, ip administered as single dose by mass spectrometry; type: ADME, organism-based; design: dose 10 mg/kg, route intraperitoneal
# [44] = AUC (infinity) in C57BL/6 mouse plasma at 10 mg/kg, ip administered as single dose by mass spectrometry; type: ADME, organism-based; design: dose 10 mg/kg, route intraperitoneal, time infinity; conditions: in vivo
# [45] = Half life in C57BL/6 mouse plasma at 10 mg/kg, ip administered as single dose by mass spectrometry; type: ADME, organism-based
# [46] = Clearance in C57BL/6 mouse plasma at 10 mg/kg, ip administered as single dose by mass spectrometry; type: ADME, organism-based
# [47] = Apparent volume of distribution in C57BL/6 mouse plasma at 10 mg/kg, ip administered as single dose by mass spectrometry; type: ADME, organism-based; conditions: in vivo
# [48] = Tmax in C57BL/6 mouse liver at 10 mg/kg, ip administered as single dose by mass spectrometry; type: ADME, organism-based
# [49] = Cmax in C57BL/6 mouse liver at 10 mg/kg, ip administered as single dose by mass spectrometry; type: ADME, organism-based; design: dose 10 mg/kg, route intraperitoneal
# [50] = AUC (infinity) in C57BL/6 mouse liver at 10 mg/kg, ip administered as single dose by mass spectrometry; type: ADME, organism-based; design: dose 10 mg/kg, route intraperitoneal, time infinity; conditions: in vivo
# [51] = Half life in C57BL/6 mouse liver at 10 mg/kg, ip administered as single dose by mass spectrometry; type: ADME, organism-based
# [52] = Apparent volume of distribution in C57BL/6 mouse liver at 10 mg/kg, ip administered as single dose by mass spectrometry; type: ADME, organism-based; conditions: in vivo
# [53] = Unbound fraction in C57BL/6 mouse liver at 10 mg/kg, ip administered as single dose by mass spectrometry; type: ADME, organism-based
# [54] = Solubility of the compound in 1% DMSO/phosphate buffered saline at pH 7.4 incubated for 18 hrs under shaking condition by UPLC/MS analysis; type: physicochemical
# T1 sequence (P27361 whole entry, looked up): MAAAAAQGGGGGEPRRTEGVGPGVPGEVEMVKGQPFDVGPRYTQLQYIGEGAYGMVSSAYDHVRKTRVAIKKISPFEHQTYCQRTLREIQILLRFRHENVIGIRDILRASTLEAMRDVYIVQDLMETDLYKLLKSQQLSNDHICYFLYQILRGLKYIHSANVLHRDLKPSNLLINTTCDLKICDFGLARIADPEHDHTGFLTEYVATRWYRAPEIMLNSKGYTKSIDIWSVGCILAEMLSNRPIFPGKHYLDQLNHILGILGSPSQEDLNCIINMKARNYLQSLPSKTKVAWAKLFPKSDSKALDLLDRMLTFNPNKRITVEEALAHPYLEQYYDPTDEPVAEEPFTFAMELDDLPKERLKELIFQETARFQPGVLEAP
# T1 sequence (P28482 whole entry, looked up): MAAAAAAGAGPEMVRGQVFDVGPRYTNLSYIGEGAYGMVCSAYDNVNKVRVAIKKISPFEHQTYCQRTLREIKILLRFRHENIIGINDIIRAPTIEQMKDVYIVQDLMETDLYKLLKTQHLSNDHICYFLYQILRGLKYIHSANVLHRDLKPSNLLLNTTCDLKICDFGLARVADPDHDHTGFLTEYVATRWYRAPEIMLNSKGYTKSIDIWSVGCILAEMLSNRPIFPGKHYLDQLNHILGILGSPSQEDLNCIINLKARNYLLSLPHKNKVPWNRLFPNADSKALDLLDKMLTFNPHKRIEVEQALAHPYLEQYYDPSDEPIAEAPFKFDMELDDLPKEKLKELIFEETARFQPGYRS
smiles,measurement,setting,value
CN1C(=O)c2cc(NC(=O)c3ccc(C(F)(F)F)cc3)ccc2OC[C@@H]2O[C@H](CC(=O)NC3Cc4ccccc4C3)CC[C@@H]21,pEC50,[1],6.64
same,Activity,[2],Active
same,Activity,[3],Active
same,Activity,[4],Active
same,Activity,[5],Active
same,Activity,[6],Active
same,Activity,[7],Active
same,Activity,[8],Active
same,Activity,[9],Active
same,Activity,[10],Active
same,Activity,[11],Active
same,Activity,[12],Active
same,Activity,[13],Active
same,Activity,[14],Active
same,Activity,[15],Active
same,Activity,[16],Active
same,Activity,[17],Active
same,Activity,[18],Active
same,Activity,[19],Active
same,Activity,[20],Active
same,Activity,[21],Active
same,Activity,[22],Active
same,Activity,[23],Active
same,Activity,[24],Active
same,Activity,[25],Active
same,Activity,[26],inactive
same,Activity,[27],inactive
same,max activation,[28],4.8
same,max activation,[29],4.7
same,Activity,[30],Active
same,Activity,[31],inactive
same,fold change (FC),[32],2
same,fold change (FC),[33],2
same,Activity,[34],Active
same,Activity,[35],Active
same,Activity,[36],Active
same,Activity,[37],inactive
same,pEC50,[38],6.37
same,pEC50,[39],6.31
same,pEC50,[40],6.62
same,"remaining at 1 h, 1 µM",[41],0%
same,Tmax,[42],1 h
same,Cmax,[43],437 ng/mL
same,AUC,[44],1010 µg/L/h
same,half-life,[45],97.8 min
same,CL/F,[46],165 mL/min/kg
same,Vz,[47],23.3 L/kg
same,Tmax,[48],4.8 min
same,Cmax,[49],4660 ng/mL
same,AUC,[50],11558 µg/L/h
same,half-life,[51],135 min
same,Vz,[52],2.81 L/kg
same,fraction unbound,[53],0.01
CN1C(=O)c2cc(NC(=O)c3ccc(C(F)(F)F)cc3)ccc2OC[C@@H]2O[C@H](CNc3nnc(C4CCC4)o3)CC[C@@H]21,max activation,[28],3.8
same,max activation,[29],4.6
same,pEC50,[38],6.49
same,pEC50,[39],5.84
same,pEC50,[40],7.02
same,solubility kinetic at 18 h,[54],27.5 µM
same,"remaining at 1 h, 1 µM",[41],18%
same,Tmax,[42],1 h
same,Cmax,[43],3050 ng/mL
same,AUC,[44],6464 µg/L/h
same,half-life,[45],87.6 min
same,CL/F,[46],25.8 mL/min/kg
same,Vz,[47],3.25 L/kg
same,Tmax,[48],60 min
same,Cmax,[49],13800 ng/mL
same,AUC,[50],35928 µg/L/h
same,half-life,[51],107 min
same,Vz,[52],0.72 L/kg
same,fraction unbound,[53],0.02
CN1C(=O)c2cc(NC(=O)c3ccc(C(F)(F)F)cc3)ccc2OC[C@@H]2O[C@H](CNC(=O)CC(C)(C)C)CC[C@@H]21,max activation,[28],1.9
same,max activation,[29],6.6
same,pEC50,[38],6.14
same,pEC50,[39],6.30
same,pEC50,[40],7.00
same,solubility kinetic at 18 h,[54],6 µM
same,"remaining at 1 h, 1 µM",[41],0%
CN1C(=O)c2cc(NC(=O)c3ccc(C(F)(F)F)cc3)ccc2OC[C@H]2O[C@@H](CC(=O)NC3Cc4ccccc4C3)CC[C@@H]21,pEC50,[1],< 4.60
